According to patent US20170042193A1, “Pet Food Compositions Having Antimicrobial Activity” (priority 2010, published 2017):
Where two headings read alike, the source gives them in different places. Values belong to the molecule of their own block, whether it stands above or below them.

What was measured:
Format in all cases: cell-based
[1] = test system: Salmonella (S. aarhus, S. muenster E1 & S. worthington); details: for inhibition of Salmonella, clear zone around the kibbles: coated kibbles, overnight at 30° C.; for Zone of Inhibition-Diameter, Mean / Zone of Inhibition-Diameter, REP I Plate 1 / Zone of Inhibition-Diameter, REP I Plate 2 / Zone of Inhibition-Diameter, REP II Plate 1 / Zone of Inhibition-Diameter, REP II Plate 2 / Zone of Inhibition-Diameter, REP III Plate 1 / Zone of Inhibition-Diameter, REP III Plate 2: kibble coated
Protocol: The kibble diffusion test has similar principles as the disk diffusion method. […] […] Efficacy of the AMI was validated by measuring how closely the Salmonella cultures grew with respect to the saturated kibbles.
Commercial canine and feline adult pet food compositions in the form of kibbles were coated with potential AMIs. […] After incubation overnight at 30° C., plates were analyzed for presence of clear zones around the kibbles.

[2] = test system: Salmonella (S. aarhus, S. muenster E1 and S. worthington); design: key to Salmonella growth or inhibition (MIC test): −: negative sign means inhibition; +: positive sign denotes growth
Protocol: The minimum inhibitory concentration (MIC) of an antimicrobial ingredient is defined as the maximum dilution of the product that will still inhibit the growth of Salmonella. Serial dilutions (0-3%, except for oregano 0-0.3%) were made of the AMI in bacterial growth media and poured in test tubes. The test organisms (S. aarhus, S. muenster E1 and S. worthington) were then added to the dilutions of the AMI ingredients to a final concentration of 10^6 or 10^3 cfu/g, incubated overnight at 30° C., and scored for growth by turbidity or plate counts.
Minimum Inhibitory Concentration was conducted for 10^3 and 10^6 cfu/g Salmonella. Results reported as negative sign means inhibition, while positive sign denotes growth.

[3] = test system: Salmonella (S. aarhus, S. muenster E1 & S. worthington)
Text: This test is typically used for antibiotic sensitivity in bacteria and was adapted to measure Salmonella growth suppression by ingredients with potential antimicrobial (AMI) activity. Discs of filter paper, approximately 5 mm in diameter, were soaked in an AMI at 1%, 2%, and 3%, except for oregano, which was soaked at 0.1%, 0.2% and 0.4% solution and placed on a Petri dish with standard methods agar with tetraphenyltetrazolium (TTC) that has been smeared with a standardized suspension of Salmonella (S. aarhus, S. muenster E1 & S. worthington). Efficacy of the AMI was validated by measuring how closely the Salmonella cultures grew with respect to the saturated filter paper.
Ingredients were screened for antimicrobial activity using the Disc Diffusion Test. Solutions of 1%, 2%, and 3% were prepared for each of these ingredients, except for oregano, which was prepared at 0.1%, 0.2%, and 0.4%. Soaking of the disks, placing them on a Standard Methods agar plate with TTC smeared with Salmonella and overnight incubation were done as discussed above. Efficacy of these ingredients was determined by measuring the clear zones (mm) around the disks (Table 2).

Compound: CCC(=O)[O-].CCC(=O)[O-].[Ca+2] [Ca propionate liquid, Ca propionate]
inhibition of Salmonella, clear zone around the kibbles [1]: inhibited Salmonella | Zone of Inhibition-Diameter, Mean ([1]; 1% solution): 9 mm | Zone of Inhibition-Diameter, REP I Plate 1 ([1]; 1% solution): 5 mm | Zone of Inhibition-Diameter, REP I Plate 2 ([1]; 1% solution): 16 mm | Zone of Inhibition-Diameter, REP II Plate 1 ([1]; 1% solution): 4 mm | Zone of Inhibition-Diameter, REP II Plate 2 ([1]; 1% solution): 9 mm | Zone of Inhibition-Diameter, REP III Plate 1 ([1]; 1% solution): 9 mm | Zone of Inhibition-Diameter, REP III Plate 2 ([1]; 1% solution): 9 mm | Zone of Inhibition-Diameter, Mean ([1]; 2% solution): 17 mm | Zone of Inhibition-Diameter, REP I Plate 1 ([1]; 2% solution): 19 mm | Zone of Inhibition-Diameter, REP I Plate 2 ([1]; 2% solution): 14 mm | Zone of Inhibition-Diameter, REP II Plate 1 ([1]; 2% solution): 18 mm | Zone of Inhibition-Diameter, REP II Plate 2 ([1]; 2% solution): 19 mm | Zone of Inhibition-Diameter, REP III Plate 1 ([1]; 2% solution): 16 mm | Zone of Inhibition-Diameter, REP III Plate 2 ([1]; 2% solution): 14 mm | Zone of Inhibition-Diameter, Mean ([1]; 3% solution): 21 mm | Zone of Inhibition-Diameter, REP I Plate 1 ([1]; 3% solution): 20 mm | Zone of Inhibition-Diameter, REP I Plate 2 ([1]; 3% solution): 15 mm | Zone of Inhibition-Diameter, REP II Plate 1 ([1]; 3% solution): 19 mm | Zone of Inhibition-Diameter, REP II Plate 2 ([1]; 3% solution): 25 mm | Zone of Inhibition-Diameter, REP III Plate 1 ([1]; 3% solution): 24 mm | Zone of Inhibition-Diameter, REP III Plate 2 ([1]; 3% solution): 25 mm

Salmonella growth or inhibition (MIC test) ([2]; 10^3 cfu/g Salmonella, antimicrobial level 0.03%): + | Salmonella growth or inhibition (MIC test) ([2]; 10^3 cfu/g Salmonella, antimicrobial level 0.15%): + | Salmonella growth or inhibition (MIC test) ([2]; 10^3 cfu/g Salmonella, antimicrobial level 0.3%): + | Salmonella growth or inhibition (MIC test) ([2]; 10^3 cfu/g Salmonella, antimicrobial level 0.9%): − | Salmonella growth or inhibition (MIC test) ([2]; 10^3 cfu/g Salmonella, antimicrobial level 1.5%): − | Salmonella growth or inhibition (MIC test) ([2]; 10^3 cfu/g Salmonella, antimicrobial level 2.1%): − | Salmonella growth or inhibition (MIC test) ([2]; 10^3 cfu/g Salmonella, antimicrobial level 3%): − | Salmonella growth or inhibition (MIC test) ([2]; 10^3 cfu/g Salmonella, antimicrobial level […]): − | Salmonella growth or inhibition (MIC test) ([2]; 10^6 cfu/g Salmonella, antimicrobial level 0.03%): + | Salmonella growth or inhibition (MIC test) ([2]; 10^6 cfu/g Salmonella, antimicrobial level 0.15%): + | Salmonella growth or inhibition (MIC test) ([2]; 10^6 cfu/g Salmonella, antimicrobial level 0.3%): + | Salmonella growth or inhibition (MIC test) ([2]; 10^6 cfu/g Salmonella, antimicrobial level 0.9%): − | Salmonella growth or inhibition (MIC test) ([2]; 10^6 cfu/g Salmonella, antimicrobial level 1.5%): − | Salmonella growth or inhibition (MIC test) ([2]; 10^6 cfu/g Salmonella, antimicrobial level 2.1%): − | Salmonella growth or inhibition (MIC test) ([2]; 10^6 cfu/g Salmonella, antimicrobial level 3%): − | Salmonella growth or inhibition (MIC test) ([2]; 10^6 cfu/g Salmonella, antimicrobial level […]): −
Compound: O=P(O)(O)O [Inorganic Acid (Phosphoric acid), Phosphoric Acid]
clear zone around disk, Partial ([3]; R 1 (*3 replicates)): 9.33 mm | clear zone around disk, Total ([3]; R 1 (*3 replicates)): 16.67 mm | clear zone around disk, Partial ([3]; R 2): 14.33 mm | clear zone around disk, Total ([3]; R 2): 24.0 mm | clear zone around disk, Partial ([3]; R 3): 21.0 mm | clear zone around disk, Total ([3]; R 3): 28.33 mm | Antimicrobial activity against Salmonella, decreasing order ([3]; order printed: Phosphoric acid>Phenols, pH 4.25-4.85>Oleoresin Oregano>92% Sodium Lactate and 6% Sodium Diacetate>Phenols, pH 4.8-6.0): Antimicrobial activity against Salmonella was observed | inhibition of Salmonella, clear zone around the kibbles [1]: inhibited Salmonella | Zone of Inhibition-Diameter, Mean ([1]; 3%): 8 mm | Zone of Inhibition-Diameter, REP I Plate 1 ([1]; 3%): 9 mm | Zone of Inhibition-Diameter, REP I Plate 2 ([1]; 3%): 7 mm | Zone of Inhibition-Diameter, REP II Plate 1 ([1]; 3%): 7 mm | Zone of Inhibition-Diameter, REP II Plate 2 ([1]; 3%): 9 mm | Zone of Inhibition-Diameter, REP III Plate 1 ([1]; 3%): 9 mm | Zone of Inhibition-Diameter, REP III Plate 2 ([1]; 3%): 7 mm
